In patent publication US20130072430A1, “METHODS FOR TREATMENT OR PROPHYLAXIS OF KIDNEY OR LIVER DYSFUNCTION” (NPS PHARMACEUTICALS, INC., priority 2010, published 2013):

System: Human patients with short bowel syndrome
Experiment: Example 2: liver biomarkers (albumin, gamma glutamyl transferase, total bilirubin, ALT, AST, ALP) in short bowel syndrome patients, every four weeks for 24 weeks
Format: in vivo
Conditions: 0.05 mg/kg/d
Protocol: To further confirm the results of Example 1, a further study was conducted involving more individuals and additional diagnostic biomarkers. Human patients with short bowel syndrome were divided into two groups: a control group (43 total individuals) to receive placebo, and an experimental group (42 total individuals) to receive teduglutide at 0.05 mg/kg/day throughout the study. Patients were treated by subcutaneous injection of placebo or the appropriate dose of teduglutide. Known biomarkers of liver function were monitored every four weeks, for 24 weeks. The liver biomarkers tested included albumin, gamma glutamyl transferase, total bilirubin, ALT and AST and ALP. Before administration of placebo or teduglutide, diagnostic biomarker levels were tested to establish a baseline for each individual.
To determine the effect of GLP-2 on the levels of the diagnostic biomarkers, the average level of each biomarker was measured for the placebo and teduglutide treated groups for each visit. Furthermore, the average change from baseline was calculated using the established baseline values. For FIGS. 17-28, p-values were calculated using the t-test.
P values are provided, which were calculated for each distribution of biomarker changes for each week using the chi-squared test.

Structure (SMILES): CC[C@H](C)[C@H](NC(=O)[C@H](Cc1ccccc1)NC(=O)[C@H](CC(=O)O)NC(=O)[C@H](CCCNC(=N)N)NC(=O)[C@H](C)NC(=O)[C@H](C)NC(=O)[C@H](CC(C)C)NC(=O)[C@H](CC(N)=O)NC(=O)[C@H](CC(=O)O)NC(=O)[C@H](CC(C)C)NC(=O)[C@@H](NC(=O)[C@@H](NC(=O)[C@H](CC(N)=O)NC(=O)[C@H](CCSC)NC(=O)[C@H](CCC(=O)O)NC(=O)[C@H](CC(=O)O)NC(=O)[C@H](CO)NC(=O)[C@H](Cc1ccccc1)NC(=O)[C@H](CO)NC(=O)CNC(=O)[C@H](CC(=O)O)NC(=O)CNC(=O)[C@@H](N)Cc1c[nH]cn1)[C@@H](C)O)[C@@H](C)CC)C(=O)N[C@@H](CC(N)=O)C(=O)N[C@@H](Cc1c[nH]c2ccccc12)C(=O)N[C@@H](CC(C)C)C(=O)N[C@H](C(=O)N[C@@H](CCC(N)=O)C(=O)N[C@H](C(=O)N[C@@H](CCCCN)C(=O)N[C@H](C(=O)N[C@H](C(=O)N[C@@H](CC(=O)O)C(=O)O)[C@@H](C)O)[C@@H](C)CC)[C@@H](C)O)[C@@H](C)CC [teduglutide]
- Gamma Glutamyl Transferase Change from Baseline, Median (Week 8, n=40): −5.5 U/L
- Gamma Glutamyl Transferase Observed Value, Mean (Week 8, n=40): 71.5 U/L
- Gamma Glutamyl Transferase Observed Value, Median (Week 8, n=40): 46 U/L
- ALT >10% decrease from Baseline, % of subjects (Week 12, m=34): (50.0%)
- ALT >10% decrease from Baseline, n subjects (Week 12, m=34): 17
- ALT >10% increase from Baseline, % of subjects (Week 12, m=34): (20.6%)
- ALT >10% increase from Baseline, n subjects (Week 12, m=34): 7
- ALT Within 10% of Baseline, % of subjects (Week 12, m=34): (29.4%)
- ALT Within 10% of Baseline, n subjects (Week 12, m=34): 10
- AST >10% decrease from Baseline, % of subjects (Week 12, m=34): (61.8%)
- AST >10% decrease from Baseline, n subjects (Week 12, m=34): 21
- AST >10% increase from Baseline, % of subjects (Week 12, m=34): (20.6%)
- AST >10% increase from Baseline, n subjects (Week 12, m=34): 7
- AST Within 10% of Baseline, % of subjects (Week 12, m=34): (17.6%)
- AST Within 10% of Baseline, n subjects (Week 12, m=34): 6
- Albumin >10% decrease from Baseline, % of subjects (Week 12, m=34): (5.9%)
- Albumin >10% decrease from Baseline, n subjects (Week 12, m=34): 2
- Albumin >10% increase from Baseline, % of subjects (Week 12, m=34): (2.9%)
- Albumin >10% increase from Baseline, n subjects (Week 12, m=34): 1
- Albumin Within 10% of Baseline, % of subjects (Week 12, m=34): (91.2%)
- Albumin Within 10% of Baseline, n subjects (Week 12, m=34): 31
- Alkaline Phosphatase >10% decrease from Baseline, % of subjects (Week 12, m=34): (67.6%)
- Alkaline Phosphatase >10% decrease from Baseline, n subjects (Week 12, m=34): 23
- Alkaline Phosphatase >10% increase from Baseline, % of subjects (Week 12, m=34): (14.7%)
- Alkaline Phosphatase >10% increase from Baseline, n subjects (Week 12, m=34): 5
- Alkaline Phosphatase Within 10% of Baseline, % of subjects (Week 12, m=34): (17.6%)
- Alkaline Phosphatase Within 10% of Baseline, n subjects (Week 12, m=34): 6
- Bilirubin >10% decrease from Baseline, % of subjects (Week 12, m=34): (44.1%)
- Bilirubin >10% decrease from Baseline, n subjects (Week 12, m=34): 15
- Bilirubin >10% increase from Baseline, % of subjects (Week 12, m=34): (26.5%)
- Bilirubin >10% increase from Baseline, n subjects (Week 12, m=34): 9
- Bilirubin Within 10% of Baseline, % of subjects (Week 12, m=34): (29.4%)
- Bilirubin Within 10% of Baseline, n subjects (Week 12, m=34): 10
- ALKALINE PHOSPHATASE Change from Baseline, Median (Week 12, n=34): −23 U/L
- ALT Change from Baseline, Mean (Week 12, n=34): −9.8 U/L
- ALT Change from Baseline, Median (Week 12, n=34): −4 U/L
- ALT Observed Value, Mean (Week 12, n=34): 33.6 U/L
- ALT Observed Value, Median (Week 12, n=34): 27.5 U/L
- AST Change from Baseline, Mean (Week 12, n=34): −4.2 U/L
- AST Change from Baseline, Median (Week 12, n=34): −5 U/L
- AST Observed Value, Mean (Week 12, n=34): 28.4 U/L
- AST Observed Value, Median (Week 12, n=34): 25 U/L
- Albumin Change from Baseline, Mean (Week 12, n=34): -0.9 g/L
- Albumin Change from Baseline, Median (Week 12, n=34): -1 g/L
- Albumin Observed Value, Mean (Week 12, n=34): 41.2 g/L
- Albumin Observed Value, Median (Week 12, n=34): 41 g/L
- Alkaline Phosphatase Change from Baseline, Mean (Week 12, n=34): −27.2 U/L
- Alkaline Phosphatase Observed Value, Mean (Week 12, n=34): 108.6 U/L
- Alkaline Phosphatase Observed Value, Median (Week 12, n=34): 98 U/L
- Bilirubin Change from Baseline, Mean (Week 12, n=34): -1.54 µmol/L
- Bilirubin Change from Baseline, Median (Week 12, n=34): -0.05 µmol/L
- Bilirubin Observed Value, Mean (Week 12, n=34): 10.57 µmol/L
- Bilirubin Observed Value, Median (Week 12, n=34): 8.35 µmol/L
- Gamma Glutamyl Transferase Change from Baseline, Mean (Week 12, n=34): −8.1 U/L
- Gamma Glutamyl Transferase Change from Baseline, Median (Week 12, n=34): −4 U/L
- Gamma Glutamyl Transferase Observed Value, Mean (Week 12, n=34): 67.9 U/L
- Gamma Glutamyl Transferase Observed Value, Median (Week 12, n=34): 51 U/L
- ALT >10% decrease from Baseline, % of subjects (Week 16, m=38): (52.6%)
- ALT >10% decrease from Baseline, n subjects (Week 16, m=38): 20
- ALT >10% increase from Baseline, % of subjects (Week 16, m=38): (21.1%)
- ALT >10% increase from Baseline, n subjects (Week 16, m=38): 8
- ALT Within 10% of Baseline, % of subjects (Week 16, m=38): (26.3%)
- ALT Within 10% of Baseline, n subjects (Week 16, m=38): 10
- AST >10% decrease from Baseline, % of subjects (Week 16, m=38): (50.0%)
- AST >10% decrease from Baseline, n subjects (Week 16, m=38): 19
- AST >10% increase from Baseline, % of subjects (Week 16, m=38): (18.4%)
- AST >10% increase from Baseline, n subjects (Week 16, m=38): 7
- AST Within 10% of Baseline, % of subjects (Week 16, m=38): (31.6%)
- AST Within 10% of Baseline, n subjects (Week 16, m=38): 12
- Albumin >10% decrease from Baseline, % of subjects (Week 16, m=38): (5.3%)
- Albumin >10% decrease from Baseline, n subjects (Week 16, m=38): 2
- Albumin >10% increase from Baseline, n subjects (Week 16, m=38): 0
- Albumin Within 10% of Baseline, % of subjects (Week 16, m=38): (94.7%)
- Albumin Within 10% of Baseline, n subjects (Week 16, m=38): 36
- Alkaline Phosphatase >10% decrease from Baseline, % of subjects (Week 16, m=38): (60.5%)
- Alkaline Phosphatase >10% decrease from Baseline, n subjects (Week 16, m=38): 23
- Alkaline Phosphatase >10% increase from Baseline, % of subjects (Week 16, m=38): (21.1%)
- Alkaline Phosphatase >10% increase from Baseline, n subjects (Week 16, m=38): 8
- Alkaline Phosphatase Within 10% of Baseline, % of subjects (Week 16, m=38): (18.4%)
- Alkaline Phosphatase Within 10% of Baseline, n subjects (Week 16, m=38): 7
- Bilirubin >10% decrease from Baseline, % of subjects (Week 16, m=38): (63.2%)
- Bilirubin >10% decrease from Baseline, n subjects (Week 16, m=38): 24
- Bilirubin >10% increase from Baseline, % of subjects (Week 16, m=38): (23.7%)
- Bilirubin >10% increase from Baseline, n subjects (Week 16, m=38): 9
- Bilirubin Within 10% of Baseline, % of subjects (Week 16, m=38): (13.2%)
- Bilirubin Within 10% of Baseline, n subjects (Week 16, m=38): 5
- ALKALINE PHOSPHATASE Change from Baseline, Median (Week 16, n=38): −22.5 U/L
- ALT Change from Baseline, Mean (Week 16, n=38): −8.0 U/L
- ALT Change from Baseline, Median (Week 16, n=38): −3 U/L
- ALT Observed Value, Mean (Week 16, n=38): 37.5 U/L
- ALT Observed Value, Median (Week 16, n=38): 26.5 U/L
- AST Change from Baseline, Mean (Week 16, n=38): −3.3 U/L
- AST Change from Baseline, Median (Week 16, n=38): −3 U/L
- AST Observed Value, Mean (Week 16, n=38): 29.8 U/L
- AST Observed Value, Median (Week 16, n=38): 26 U/L
- Albumin Change from Baseline, Mean (Week 16, n=38): -0.7 g/L
- Albumin Change from Baseline, Median (Week 16, n=38): -0.5 g/L
- Albumin Observed Value, Mean (Week 16, n=38): 41.7 g/L
- Albumin Observed Value, Median (Week 16, n=38): 42 g/L
- Alkaline Phosphatase Change from Baseline, Mean (Week 16, n=38): −24.5 U/L
- Alkaline Phosphatase Observed Value, Mean (Week 16, n=38): 114.2 U/L
- Alkaline Phosphatase Observed Value, Median (Week 16, n=38): 102 U/L
- Bilirubin Change from Baseline, Mean (Week 16, n=38): -3.41 µmol/L
- Bilirubin Change from Baseline, Median (Week 16, n=38): -1.75 µmol/L
- Bilirubin Observed Value, Mean (Week 16, n=38): 9.40 µmol/L
- Bilirubin Observed Value, Median (Week 16, n=38): 8.1 µmol/L
- Gamma Glutamyl Transferase Change from Baseline, Mean (Week 16, n=38): −7.0 U/L
- Gamma Glutamyl Transferase Change from Baseline, Median (Week 16, n=38): −5.5 U/L
